Test results: the NIST ThermoML archive (doi:10.1021/acs.jced.5b00662)
Where “and” joins values, the source holds several entries; their conditions need not be identical. Equal entries are not always repeated.

Tests used:
[1] = 101.33 kPa, Liquid; for speed of sound: Sing-around technique in a fixed-path interferometer; for mass density: Vibrating tube method; for viscosity: Concentric cylinders viscometry
[2] = refractive index (Na D-line) (dimensionless); details: 101.33 kPa, Liquid, Standard Abbe refractometry

COCCOCCOCCOCCOC [2,5,8,11,14-pentaoxapentadecane]
Details | mass density, [1] | refractive index, [2] | speed of sound, [1] [m/s] | viscosity, [1] [mPa·s]
283.15 K | 1020.7 kg/m3 | 1.43599 | 1439.7 | –
288.15 K | 1017 kg/m3 and 1016.1 kg/m3 | 1.43414 | 1420.3 | 4.337
293.15 K | 1012.3 kg/m3 and 1011.5 kg/m3 | 1.43196 | 1401 | 3.846
298.15 K | 1006.8 kg/m3 and 1007.6 kg/m3 | 1.42992 | 1382 | 3.335
303.15 K | 1002.2 kg/m3 and 1003.1 kg/m3 | 1.42777 | 1363.1 | 2.967
308.15 K | 997.6 kg/m3 and 998.8 kg/m3 | – | 1344.3 | 2.66
313.15 K | 993 kg/m3 and 994.1 kg/m3 | 1.42373 | 1325.6 | 2.389
318.15 K | 989.5 kg/m3 | – | – | 2.183
323.15 K | 983.7 kg/m3 and 984.9 kg/m3 | 1.41973 | 1289.1 | 1.995
328.15 K | 980.2 kg/m3 | – | – | 1.832
333.15 K | 974.5 kg/m3 and 975.6 kg/m3 | 1.41578 | 1253.4 | 1.677
338.15 K | 971 kg/m3 | – | – | 1.566
343.15 K | 966.5 kg/m3 and 965.3 kg/m3 | 1.41174 | 1218.5 | 1.456
348.15 K | 961.9 kg/m3 | – | – | 1.358
353.15 K | 957.3 kg/m3 | 1.40773 | – | 1.25
358.15 K | 952.7 kg/m3 | – | – | 1.188
363.15 K | 948.1 kg/m3 | – | – | 1.115
368.15 K | 943.5 kg/m3 | – | – | 1.047
373.15 K | 938.9 kg/m3 | – | – | 0.978

CCOCCO [2-ethoxyethan-1-ol]
Details | mass density, [1] | refractive index, [2] | speed of sound, [1] [m/s] | viscosity, [1] [mPa·s]
283.15 K | 941.2 kg/m3 | 1.4149 | 1360.6 | –
288.15 K | 936.8 kg/m3 and 936.7 kg/m3 | 1.4125 | 1342 | 2.314
293.15 K | 932.3 kg/m3 and 932.2 kg/m3 | 1.41024 | 1323.9 | 2.066
298.15 K | 927.6 kg/m3 and 927.7 kg/m3 | 1.40803 | 1305.7 | 1.845
303.15 K | 923.1 kg/m3 | 1.40613 | 1286.7 | 1.661
308.15 K | 918.5 kg/m3 | – | 1268.6 | 1.503
313.15 K | 913.8 kg/m3 and 913.9 kg/m3 | 1.4018 | 1250.2 | 1.365
318.15 K | 909.3 kg/m3 | – | – | 1.247
323.15 K | 904.5 kg/m3 and 904.6 kg/m3 | 1.39691 | 1213.8 | 1.143
328.15 K | 899.9 kg/m3 | – | – | 1.051
333.15 K | 895 kg/m3 and 895.1 kg/m3 | 1.39271 | 1178.5 | 0.962
338.15 K | 890.4 kg/m3 | – | – | 0.895
343.15 K | 885.5 kg/m3 and 885.2 kg/m3 | 1.38849 | 1143.7 | 0.829
348.15 K | 880.7 kg/m3 | – | – | 0.77
353.15 K | 875.8 kg/m3 | 1.3838 | – | 0.725
358.15 K | 871 kg/m3 | – | – | 0.666
363.15 K | 866.1 kg/m3 | – | – | 0.623
368.15 K | 861.2 kg/m3 | – | – | 0.584
373.15 K | 856.3 kg/m3 | – | – | 0.518

CCOCCOCCO [3,6-dioxa-1-octanol]
Details | mass density, [1] | refractive index, [2] | speed of sound, [1] [m/s] | viscosity, [1] [mPa·s]
283.15 K | 997.1 kg/m3 | 1.4311 | 1428.9 | –
288.15 K | 993.9 kg/m3 and 992.6 kg/m3 | 1.42916 | 1410.5 | 5.157
293.15 K | 989.4 kg/m3 and 988.2 kg/m3 | 1.42711 | 1392.6 | 4.466
298.15 K | 983.7 kg/m3 and 984.9 kg/m3 | 1.42501 | 1374.6 | 3.811
303.15 K | 979.3 kg/m3 and 980.4 kg/m3 | 1.4229 | 1356.8 | 3.328
308.15 K | 974.8 kg/m3 and 976 kg/m3 | – | 1339 | 2.933
313.15 K | 970.3 kg/m3 and 971.5 kg/m3 | 1.41887 | 1321.7 | 2.592
318.15 K | 967 kg/m3 | – | – | 2.331
323.15 K | 961.3 kg/m3 and 962.5 kg/m3 | 1.41483 | 1286.9 | 2.099
328.15 K | 958.1 kg/m3 | – | – | 1.901
333.15 K | 952.2 kg/m3 and 953.5 kg/m3 | 1.41082 | 1252.6 | 1.718
338.15 K | 949 kg/m3 | – | – | 1.583
343.15 K | 944.4 kg/m3 and 943.1 kg/m3 | 1.40683 | 1218.9 | 1.456
348.15 K | 939.9 kg/m3 | – | – | 1.343
353.15 K | 935.3 kg/m3 | 1.40276 | – | 1.225
358.15 K | 930.7 kg/m3 | – | – | 1.153
363.15 K | 926.1 kg/m3 | – | – | 1.072
368.15 K | 921.4 kg/m3 | – | – | 0.997
373.15 K | 916.8 kg/m3 | – | – | 0.921
